For 25 compounds, inhibition and IC50 results are on record in patent US9284333B2, “Fused pyrroledicarboxamides and their use as pharmaceuticals” (SANOFI, priority 2012, dated 2016).

The target of the first experiment is Human TASK-1 channels (Homo sapiens (Human), UniProt O14649). Nature of the experiment: Determination of the activity on the TASK-1 channel in Xenopus oocytes (two-microelectrode voltage clamp). The settings on record: compound concentration 5 μM. Type of experiment: cell-based. How it is done: Determination of the activity on the TASK-1 channel in Xenopus oocytes
Human TASK-1 channels, sequence (O14649 whole entry): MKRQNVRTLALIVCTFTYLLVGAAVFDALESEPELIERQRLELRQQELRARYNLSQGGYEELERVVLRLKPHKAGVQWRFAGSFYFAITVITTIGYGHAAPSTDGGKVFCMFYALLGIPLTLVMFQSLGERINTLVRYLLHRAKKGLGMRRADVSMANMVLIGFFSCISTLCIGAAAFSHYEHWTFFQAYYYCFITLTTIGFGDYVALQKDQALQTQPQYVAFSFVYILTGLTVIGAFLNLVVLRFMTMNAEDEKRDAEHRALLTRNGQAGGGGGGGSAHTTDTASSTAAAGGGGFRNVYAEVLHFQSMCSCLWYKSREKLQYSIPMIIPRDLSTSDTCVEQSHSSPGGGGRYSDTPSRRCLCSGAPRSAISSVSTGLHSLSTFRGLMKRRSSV
Human TASK-1 channels were expressed in Xenopus oocytes. For this purpose, oocytes were isolated from Xenopus laevis and defoliculated. Subsequently, TASK-1-encoding RNA synthesized in vitro was injected into the oocytes. After two days of TASK-1 protein expression, TASK-1 currents were measured by two-microelectrode voltage clamp. Data were acquired and analyzed using a TEC-10cx amplifier (NPI Electronic, Tamm, Germany) connected to an ITC-16 interface (Instrutech Corp., Long Island, USA) and Pulse software (HEKA Elektronik, Lambrecht, Germany). Oocytes were clamped to −90 mV and TASK-1 mediated currents were measured during 500 ms voltage pulses to 40 mV. Oocytes were continuously superfused with ND96 buffer containing 96 mM sodium chloride, 2 mM potassium chloride, 1.8 mM calcium chloride, 1 mM magnesium chloride, 5 mM 4-(2-hydroxyethyl)-piperazine-1-ethanesulfonic acid (HEPES; pH adjusted to 7.4 with sodium hydroxide). All experiments were performed at room temperature. Test compounds were consecutively added to the bath solution at rising concentrations. Compound effects were calculated as the percentage inhibition of TASK-1 control current before compound addition. IC50 values were obtained by fitting the data to the general dose-response equation.
As a reminder, the inhibition is the percentage by which the read-out fell short of the control. A low value points to a response near the control. Consider `CC[C@H](NC(=O)c1cc(C(=O)N2CCC[C@@H]2C)n2c1COCC2)c1cnc(C(F)(F)F)cc1Cl` [16bs, 6-((S)-2-Methyl-pyrrolidine-1-carbonyl)-3,4-dihydro-1H-pyrrolo[2,1-c][1,4]oxazine-8-carboxylic acid [(S)-1-(4-chloro-6-trifluoromethyl-pyridin-3-yl)-propyl]-amide], for which testing at 5 µM gave an inhibition of 80%. On to `CC[C@@H](NC(=O)c1cc(C(=O)N2CCC[C@@H]2C)c2n1CCOC2)c1ccc(C(F)(F)F)nc1` [16nk, 8-((S)-2-Methyl-pyrrolidine-1-carbonyl)-3,4-dihydro-1H-pyrrolo[2,1-c][1,4]oxazine-6-carboxylic acid [(R)-1-(6-trifluoromethyl-pyridin-3-yl)-propyl]-amide], for which the inhibition at 5 µM came to 62%.

For the compound `CC[C@@H](NC(=O)c1cc(C(=O)N2CCC2C)n2c1COCC2)c1ccc(C(F)(F)F)nc1` (stereo partly drawn) [16pe, 6-(2-Methyl-azetidine-1-carbonyl)-3,4-dihydro-1H-pyrrolo[2,1-c][1,4]oxazine-8-carboxylic acid [(R)-1-(6-trifluoromethyl-pyridin-3-yl)-propyl]-amide], testing at 5 µM gave an inhibition of 69%.

The same experiment, now with this note: human TASK-1 expressed in Xenopus oocytes, room temperature; read-out: IC50 value for TASK-1 inhibition.
For orientation: IC50 means the point on the concentration scale where inhibition reaches its midpoint. Consider `CC[C@@H](NC(=O)c1cc(C(=O)N[C@H](CC)c2cccc(O)c2)n2c1COCC2)c1ccccc1` [16ix, 3,4-Dihydro-1H-pyrrolo[2,1-c][1,4]oxazine-6,8-dicarboxylic acid 6-{[(R)-1-(3-hydroxy-phenyl)-propyl]-amide} 8-[((R)-1-phenyl-propyl)-amide]], for which the IC50 was 360 nM.

As to `CC[C@@H](NC(=O)c1cc(C(=O)N2CCC[C@@H]2C)n2c1COCC2)c1ccc(C(F)(F)F)cc1Cl` [16cq, 6-((S)-2-Methyl-pyrrolidine-1-carbonyl)-3,4-dihydro-1H-pyrrolo[2,1-c][1,4]oxazine-8-carboxylic acid [(R)-1-(2-chloro-4-trifluoromethyl-phenyl)-propyl]-amide], the IC50 came to 300 nM. The same measure, in the same setting: the same measure for `C[C@@H](NC(=O)c1cc(C(=O)N[C@H](C)c2ccc(F)cc2)n2c1COCC2)c1cccc(F)c1` [16do, 3,4-Dihydro-1H-pyrrolo[2,1-c][1,4]oxazine-6,8-dicarboxylic acid 6-{[(R)-1-(4-fluoro-phenyl)-ethyl]-amide} 8-{[(R)-1-(3-fluoro-phenyl)-ethyl]-amide}]: 190 nM; for `CC[C@@H](NC(=O)c1cc(C(=O)N2CCC[C@@H]2C)n2c1COCC2)c1ccc(OC)cc1` [16at, 6-((S)-2-Methyl-pyrrolidine-1-carbonyl)-3,4-dihydro-1H-pyrrolo[2,1-c][1,4]oxazine-8-carboxylic acid [(R)-1-(4-methoxy-phenyl)-propyl]-amide]: 400 nM. In the case of `CC[C@@H](NC(=O)c1cc(C(=O)N[C@H](CC)c2ncccn2)c2n1CCOC2)c1ccc(C(F)(F)F)cc1` [16lb, 3,4-Dihydro-1H-pyrrolo[2,1-c][1,4]oxazine-6,8-dicarboxylic acid 8-[((R)-1-pyrimidin-2-yl-propyl)-amide] 6-{[(R)-1-(4-trifluoromethyl-phenyl)-propyl]-amide}], the IC50 stood at 65 nM. The same measure, in the same setting: the same measure for `CC(C)[C@@H](NC(=O)c1cc(C(=O)N2CCC[C@@H]2C)c2n1CCOC2)c1ccc(F)cc1` [16lj, 8-((S)-2-Methyl-pyrrolidine-1-carbonyl)-3,4-dihydro-1H-pyrrolo[2,1-c][1,4]oxazine-6-carboxylic acid [(R)-1-(4-fluoro-phenyl)-2-methyl-propyl]-amide]: 200 nM. Still for that read-out and setting: the same measure for `CC[C@@H](NC(=O)c1cc(C(=O)N2CCCC2C(C)(C)O)n2c1COCC2)c1ccccc1` (stereo partly drawn) [16ew, 6-[2-(1-Hydroxy-1-methyl-ethyl)-pyrrolidine-1-carbonyl]-3,4-dihydro-1H-pyrrolo[2,1-c][1,4]oxazine-8-carboxylic acid ((R)-1-phenyl-propyl)-amide]: 3700 nM; for `CC[C@@H](NC(=O)c1cc(C(=O)NCC(C)(C)C)n2c1COCC2)c1ccccc1` [16go, 3,4-Dihydro-1H-pyrrolo[2,1-c][1,4]oxazine-6,8-dicarboxylic acid 6-[(2,2-dimethyl-propyl)-amide] 8-[((R)-1-phenyl-propyl)-amide]]: 900 nM. `CC[C@@H](NC(=O)c1cc(C(=O)N2CCC[C@@H]2C)n2c1COCC2)c1cnc(Cl)c(Cl)c1` [16co, 6-((S)-2-Methyl-pyrrolidine-1-carbonyl)-3,4-dihydro-1H-pyrrolo[2,1-c][1,4]oxazine-8-carboxylic acid [(R)-1-(5,6-dichloro-pyridin-3-yl)-propyl]-amide]: the IC50 stood at 140 nM.

On to `C[C@H]1CCCN1C(=O)c1cc(C(=O)NCc2ccc(F)cc2Cl)c2n1CCOC2` [16x, 6-((S)-2-Methyl-pyrrolidine-1-carbonyl)-3,4-dihydro-1H-pyrrolo[2,1-c][1,4]oxazine-8-carboxylic acid 2-chloro-4-fluoro-benzylamide], for which the IC50 was 190 nM. Consider `CC[C@@H](NC(=O)c1cc(C(=O)NC(C)c2ncccn2)c2n1CCOC2)c1ccccc1` (mixture of isomers) [16ka, 3,4-Dihydro-1H-pyrrolo[2,1-c][1,4]oxazine-6,8-dicarboxylic acid 6-[((R)-1-phenyl-propyl)-amide] 8-[(1-pyrimidin-2-yl-ethyl)-amide]], for which the IC50 came out at 460 nM. `CC[C@@H](NC(=O)c1cc(C(=O)NCc2c(C)noc2C)n2c1COCC2)c1ccccc1` [16pq, 3,4-Dihydro-1H-pyrrolo[2,1-c][1,4]oxazine-6,8-dicarboxylic acid 6-[(3,5-dimethyl-isoxazol-4-ylmethyl)-amide] 8-[((R)-1-phenyl-propyl)-amide]]: the IC50 came out at 650 nM.

For `CC[C@@H](NC(=O)c1cc(C(=O)N2CCC[C@@H]2C)n2c1COCC2)c1ccc(C(F)(F)F)cn1` [16bl, 6-((S)-2-Methyl-pyrrolidine-1-carbonyl)-3,4-dihydro-1H-pyrrolo[2,1-c][1,4]oxazine-8-carboxylic acid [(R)-1-(5-trifluoromethyl-pyridin-2-yl)-propyl]-amide], the IC50 was determined as 820 nM. For the compound `CC[C@H](NC(=O)c1cc(C(=O)N2CCC[C@@H]2C)n2c1COCC2)c1ccc(C(F)(F)F)nc1` [16bj, 6-((S)-2-Methyl-pyrrolidine-1-carbonyl)-3,4-dihydro-1H-pyrrolo[2,1-c][1,4]oxazine-8-carboxylic acid [(S)-1-(6-trifluoromethyl-pyridin-3-yl)-propyl]-amide], the IC50 was 4100 nM.

With `CC[C@@H](NC(=O)c1cc(C(=O)N2[C@@H](COC)CC[C@@H]2COC)n2c1COCC2)c1ccccc1` [16ep, 6-((2R,5R)-2,5-Bis-methoxymethyl-pyrrolidine-1-carbonyl)-3,4-dihydro-1H-pyrrolo[2,1-c][1,4]oxazine-8-carboxylic acid ((R)-1-phenyl-propyl)-amide], the IC50 came to 820 nM.

As for `CC[C@@H](NC(=O)c1cc(C(=O)NC(C)c2ncccn2)n2c1COCC2)c1ccc(F)cc1Cl` (stereo partly drawn) [16np, 3,4-Dihydro-1H-pyrrolo[2,1-c][1,4]oxazine-6,8-dicarboxylic acid 8-{[(R)-1-(2-chloro-4-fluoro-phenyl)-propyl]-amide} 6-[(1-pyrimidin-2-yl-ethyl)-amide]], the IC50 stood at 170 nM.

On to `CC[C@@H](NC(=O)c1cc(C(=O)NC(C)c2nnn(CC)n2)n2c1COCC2)c1ccccc1` (stereo partly drawn) [16rq, 3,4-Dihydro-1H-pyrrolo[2,1-c][1,4]oxazine-6,8-dicarboxylic acid 6-{[1-(2-ethyl-2H-tetrazol-5-yl)-ethyl]-amide} 8-[((R)-1-phenyl-propyl)-amide]], for which the IC50 was determined as 750 nM. For `CC[C@@H](NC(=O)c1cc(C(=O)N2CCC[C@@H]2c2ccccn2)n2c1COCC2)c1ccccc1` [16fk, 6-((R)-2-Pyridin-2-yl-pyrrolidine-1-carbonyl)-3,4-dihydro-1H-pyrrolo[2,1-c][1,4]oxazine-8-carboxylic acid ((R)-1-phenyl-propyl)-amide], the IC50 was determined as 290 nM. On the same count and under the same terms, the same measure for `CC[C@@H](NC(=O)c1cc(C(=O)N2CCC[C@@H]2C)n2c1COCC2)c1ccc(Cl)c(C(F)(F)F)c1` [16cs, 6-((S)-Methyl-pyrrolidine-1-carbonyl)-3,4-dihydro-1H-pyrrolo[2,1-c][1,4]oxazine-8-carboxylic acid [(R)-1-(4-chloro-3-trifluoromethyl-phenyl)-propyl]-amide]: 290 nM; for `O=C(NC(c1ccc(F)cc1)C(F)(F)F)c1cc(C(=O)N2CCCC2)n2c1COCC2` (stereo not shown) [16df, 6-(Pyrrolidine-1-carbonyl)-3,4-dihydro-1H-pyrrolo[2,1-c][1,4]oxazine-8-carboxylic acid [2,2,2-trifluoro-1-(4-fluoro-phenyl)-ethyl]-amide]: 1910 nM. On to `CC[C@@H](NC(=O)c1cc(C(=O)N2CCC[C@@H]2C)n2c1COCC2)c1ccccc1C(F)(F)F` [16s, 6-((S)-2-Methyl-pyrrolidine-1-carbonyl)-3,4-dihydro-1H-pyrrolo[2,1-c][1,4]oxazine-8-carboxylic acid [(R)-1-(2-trifluoromethyl-phenyl)-propyl]-amide], for which the 50% inhibitory concentration (IC50) is 250 nM. On to `CC[C@@H](NC(=O)c1cc(C(=O)N[C@H](C)c2cnccn2)n2c1COCC2)c1ccccc1Cl` [16nq, 3,4-Dihydro-1H-pyrrolo[2,1-c][1,4]oxazine-6,7-dicarboxylic acid 8-{[(R)-1-(2-chloro-phenyl)-propyl]-amide} 6-[((R)-1-pyrazin-2-yl-ethyl)-amide]], for which the IC50 is 480 nM.
